Numbers after ± are expanded uncertainties.
Key:
[1] = molar heat capacity at constant pressure
[2] = Crystal; DTA
[3] = Molar enthalpy of transition or fusion; details: Crystal; DSC
[4] = Boiling temperature at pressure P; details: 100 kPa; Glass; DTA
[5] = 373.15 K; 101.33 kPa; Liquid; DSC
[6] = 273.15 K; 101.33 kPa; Liquid; DSC
[7] = 323.15 K; 101.33 kPa; Liquid; DSC
[8] = 423.15 K; 101.33 kPa; Liquid; DSC
[9] = 473.15 K; 101.33 kPa; Liquid; DSC
[10] = 273.16 K; 101.33 kPa; Liquid; DSC
[11] = 323.16 K; 101.33 kPa; Liquid; DSC

| SMILES | molar heat capacity at constant pressure [1, 5] [J/K/mol] | Normal melting temperature [2] [°C] | Molar enthalpy of transition or fusion [3] [kcal/mol] | molar heat capacity at constant pressure [1, 6] [J/K/mol] | molar heat capacity at constant pressure [1, 7] [J/K/mol] | molar heat capacity at constant pressure [1, 8] [J/K/mol] | molar heat capacity at constant pressure [1, 9] [J/K/mol] | Boiling temperature at pressure P [4] [°C] | also measured |
| --- | --- | --- | --- | --- | --- | --- | --- | --- | --- |
| COc1cccc(OC)c1O [1,3-dimethoxy-2-hydroxybenzene] | 328.21 ± 13 | 53.2 ± 2 | 12 ± 0.43 |  |  |  |  |  | molar heat capacity at constant pressure ([1]; 333.16 K; 101.33 kPa; Liquid; DSC): 317.27 ± 13 J/K/mol; molar heat capacity at constant pressure ([1]; 413.14 K; 101.33 kPa; Liquid; DSC): 333.46 ± 14 J/K/mol; molar heat capacity at constant pressure ([1]; 453.12 K; 101.33 kPa; Liquid; DSC): 347.18 ± 14 J/K/mol; molar heat capacity at constant pressure ([1]; 493.1 K; 101.33 kPa; Liquid; DSC): 357.35 ± 14 J/K/mol |
| CCC(O)c1ccccc1 (stereo not drawn) [1-phenyl-1-propanol] | 338.03 ± 14 | -10.6 ± 2 |  | 279.6 ± 11 | 319.91 ± 13 | 352.6 ± 14 | 368.94 ± 15 | -74.3 ± 2 |  |
| CC(O)Cc1ccccc1 (stereo not drawn) [1-phenyl-2-propanol] | 329.31 ± 13 |  |  | 282.05 ± 11 | 311.06 ± 13 | 345.52 ± 14 | 354.78 ± 14 | -72.5 ± 2 |  |
| CCCOCC(C)O (stereo not drawn) [1-propoxy-2-propanol] | 314.7 ± 13 |  |  |  |  |  |  |  | molar heat capacity at constant pressure ([1]; 193.19 K; 101.33 kPa; Liquid; DSC): 237.41 ± 9.7 J/K/mol; molar heat capacity at constant pressure ([1]; 223.15 K; 101.33 kPa; Liquid; DSC): 247.93 ± 10 J/K/mol; molar heat capacity at constant pressure [1, 10]: 271.09 ± 11 J/K/mol; molar heat capacity at constant pressure [1, 11]: 290.12 ± 12 J/K/mol |
| FC(F)C(F)(F)C(F)(F)C(F)(F)C(F)(F)C(F)(F)C(F)(F)C(F)(F)F [1H-perfluorooctane] |  | -18.8 ± 2 | 2.36 ± 1 |  |  |  |  |  | molar heat capacity at constant pressure ([1]; 258.16 K; 101.33 kPa; Liquid; DSC): 446.11 ± 18 J/K/mol; molar heat capacity at constant pressure [1, 10]: 458.71 ± 18 J/K/mol; molar heat capacity at constant pressure ([1]; 298.16 K; 101.33 kPa; Liquid; DSC): 480.14 ± 19 J/K/mol; molar heat capacity at constant pressure [1, 11]: 494.84 ± 20 J/K/mol; molar heat capacity at constant pressure ([1]; 373.14 K; 101.33 kPa; Liquid; DSC): 526.76 ± 21 J/K/mol |
| Cc1ccc(C)o1 [2,5-dimethylfuran] |  |  |  |  |  |  |  |  | molar heat capacity at constant pressure ([1]; 213.15 K; 101.33 kPa; Liquid; DSC): 159.28 ± 6.4 J/K/mol; molar heat capacity at constant pressure ([1]; 253.15 K; 101.33 kPa; Liquid; DSC): 163.99 ± 6.6 J/K/mol; molar heat capacity at constant pressure ([1]; 293.15 K; 101.33 kPa; Liquid; DSC): 170.63 ± 6.9 J/K/mol; molar heat capacity at constant pressure ([1]; 333.15 K; 101.33 kPa; Liquid; DSC): 184.95 ± 7.5 J/K/mol |
| CC(C)c1ccccc1O [2-(1-methylethyl)phenol] |  | 12 ± 4 | 2.62 ± 0.335 |  |  |  |  |  | molar heat capacity at constant pressure ([1]; 273.15 K; 101.33 kPa; Metastable liquid; DSC): 281.92 ± 11 J/K/mol; molar heat capacity at constant pressure ([1]; 323.15 K; 101.33 kPa; DSC; Liquid): 307.38 ± 13 J/K/mol; molar heat capacity at constant pressure ([1]; 373.15 K; 101.33 kPa; DSC; Liquid): 321.55 ± 13 J/K/mol; molar heat capacity at constant pressure ([1]; 423.15 K; 101.33 kPa; DSC; Liquid): 337.89 ± 14 J/K/mol; molar heat capacity at constant pressure ([1]; 473.15 K; 101.33 kPa; DSC; Liquid): 354.37 ± 14 J/K/mol |
| C/C=C/c1ccc(O)c(OC)c1 [2-methoxy-4-(1E)-1-propen-1-yl-phenol] | 348.43 ± 14 | 21.6 ± 2 | 2.8 ± 0.406 |  | 336.45 ± 14 | 381.6 ± 15 | 387.19 ± 16 |  | molar heat capacity at constant pressure ([1]; 298.15 K; 101.33 kPa; Liquid; DSC): 326.92 ± 13 J/K/mol |
| Cc1ccccc1C=O [2-methylbenzaldehyde] |  | -39.7 ± 2 | 2.44 ± 0.287 |  |  |  |  |  | molar heat capacity at constant pressure ([1]; 238.16 K; 101.33 kPa; Liquid; DSC): 184.43 ± 7.4 J/K/mol; molar heat capacity at constant pressure ([1]; 293.16 K; 101.33 kPa; Liquid; DSC): 199.57 ± 8.2 J/K/mol; molar heat capacity at constant pressure ([1]; 348.15 K; 101.33 kPa; Liquid; DSC): 217.83 ± 8.9 J/K/mol; molar heat capacity at constant pressure ([1]; 403.13 K; 101.33 kPa; Liquid; DSC): 230.69 ± 9.4 J/K/mol; molar heat capacity at constant pressure ([1]; 458.11 K; 101.33 kPa; Liquid; DSC): 261.08 ± 11 J/K/mol |
| CC(CO)c1ccccc1 (stereo not drawn) [2-phenyl-1-propanol] | 325.91 ± 13 |  |  | 273.34 ± 11 | 300.98 ± 12 | 341.98 ± 14 | 351.78 ± 14 | -75.5 ± 2 |  |
